Data from patent US7115596B2, “Thiazole compounds as integrin receptor antagonists derivatives” (Pharmacia Corporation, priority 2002, dated 2006).
Structures can show the parent of a compound that is named as a salt.

Test: Plasma level upon oral dosing (AUC-PO) in rat
Assay type: in vivo
Conditions: per dose, Table 1

SMILES	Rat AUC/Dose [ug-/m/L/mg/Kg]
O=C(O)C[C@H](Cc1csc(CCCCNc2cc(N3CCOCC3)ccn2)n1)c1ccc2c(c1)OCO2	0.0634
O=C(O)CC(Cc1csc(CCCc2ccc3c(n2)NCCC3)n1)c1ccc2c(c1)OCO2 (stereo not drawn) [drawing 98]	6.81

Same assay, conditions: per dose, second table

SMILES	Rat PK-AUC/dose [ug-h/m/L/mg/Kg]
COc1ccc(C(CC(=O)O)Cc2csc(CCCc3ccc4c(n3)NCCC4)n2)cc1F (stereo not drawn) [Example 2, 3-(3-fluoro-4-methoxyphenyl)-4-{2-[3-(5,6,7,8-tetrahydro-1,8-naphthyridin-2-yl)propyl]-1,3-thiazol-4-yl}butanoic acid hydrochloride]	1.8
COc1cc(OC)cc(C(CC(=O)O)Cc2csc(CCCc3ccc4c(n3)NCCC4)n2)c1 (stereo not drawn) [Example 5, 3-(3,5-dimethoxyphenyl)-4-{2-[3-(5,6,7,8-tetrahydro-1,8-naphthyridin-2-yl)propyl]-1,3-thiazol-4-yl}butanoic acid hydrochloride]	2.2
O=C(O)CC(Cc1csc(CCCc2ccc3c(n2)NCCC3)n1)c1ccc2c(c1)OCO2 (stereo not drawn) [Example 6, 3-(1,3-benzodioxol-5-yl)-4-{2-[3-(5,6,7,8-tetrahydro-1,8-naphthyridin-2-yl)propyl]-1,3-thiazol-4-yl}butanoic acid hydrochloride]	6.8
O=C(O)C[C@H](Cc1csc(CCCc2ccc3c(n2)NCCC3)n1)c1ccc2c(c1)OCO2 [Example 7, (3S)-3-(1,3-benzodioxol-5-yl)-4-{2-[3-(5,6,7,8-tetrahydro-1,8-naphthyridin-2-yl)propyl]-1,3-thiazol-4-yl}butanoic acid hydrochloride]	8.7
Cc1nc2cc(C(CC(=O)O)Cc3csc(CCCc4ccc5c(n4)NCCC5)n3)ccc2s1 (stereo not drawn) [Example 9, 3-(2-methyl-1,3-benzothiazol-5-yl)-4-{2-[3-(5,6,7,8-tetrahydro-1,8-naphthyridin-2-yl)propyl]-1,3-thiazol-4-yl}butanoic acid hydrochloride]	2.5
COc1ccc(C(CC(=O)O)Cc2csc(CCCc3ccc4c(n3)NCCC4)n2)cn1 (stereo not drawn) [Example 13, 3-(6-Methoxypyridin-3-yl)-4-{2-[3-(5,6,7,8-tetrahydro-1,8-naphthyridin-2-yl)propyl]-1,3-thiazol-4-yl}butanoic acid hydrochloride]	1.6
O=C(O)CC(Cc1csc(CCCc2ccc3c(n2)NCCC3)n1)c1cnc(C2CC2)s1 (stereo not drawn) [Example 16, 3-(2-Cyclopropyl-1,3-thiazol-5-yl)-4-{2-[3-(5,6,7,8-tetrahydro-1,8-naphthyridin-2-yl)propyl]-1,3-thiazol-4-yl}butanoic acid hydrochloride]	1.7
